Results as given in patent US5436253A, “Pyridonecarboxylic acid derivatives and mycotic infections” (Daiichi Pharmaceutical Co., Ltd., priority 1993, dated 1995).

Experiments:
Parameters in all cases: MIC Alone: unit not given beside the values
Conditions in all cases: antimycotic agent alone
Blastomyces dermatitidis = system: Blastomyces dermatitidis
Cryptococcus = system: Cryptococcus
C. albicans = system: C. albicans

Compound | MIC Alone (Blastomyces dermatitidis) | MIC Alone (Cryptococcus) | MLC Alone (C. albicans) | MIC Alone (C. albicans) | MLC Alone (Blastomyces dermatitidis) | MLC Alone (Cryptococcus)
C[C@@H]1[C@H](O)[C@@H](C)/C=C/C=C/C=C/C=C/C=C/C=C/C=C/[C@H](O[C@@H]2O[C@H](C)[C@@H](O)[C@H](N)[C@@H]2O)C[C@@H]2O[C@](O)(C[C@@H](O)C[C@@H](O)[C@H](O)CC[C@@H](O)C[C@@H](O)CC(=O)O[C@H]1C)C[C@H](O)[C@H]2C(=O)O [AMB, amphotericin B] | 0.29 | 0.29 | > 4.62 | – | – | –
OC(Cn1cncn1)(Cn1cncn1)c1ccc(F)cc1F [FLU, fluconazole] | 10 | 10 | – | 2.5 | – | –
Clc1ccc(COC(Cn2ccnc2)c2ccc(Cl)cc2Cl)c(Cl)c1 (stereo not drawn) [MON, miconazole] | – | – | – | 1.25 | 5 | 5
